Entries after “also recorded” stand apart in the source; their conditions may differ.
Experiments:
[1] = tested on: BWbacA-singleΔtolC strain; assay: Growth inhibition / MIC in 2YT liquid medium; type: cell-based, E. coli; details: for MIC: BWbacA-singleΔtolC strain
Description: (§1) Bacteria were grown in 2YT broth supplemented, when required, with ampicillin or kanamycin at concentrations of 100 and 50 µg/ml, respectively. The BWΔtolC strain was obtained from the Keio collection. The BWΔbacAΔtolC and BWbacA-singleΔtolC were generated by P1 transduction of the ΔtolC::Kan^R cassette from BWΔtolC strain to BWΔbacA and DMEG9 recipient strains, respectively. The strains S. aureus RN4220 and S. pneumoniae R6 were used to evaluate the antibacterial activity of certain compounds. S. aureus was grown on BHI (Brain Heart Infusion) broth and S. pneumoniae was grown on Colombia broth supplemented with 5% horse blood.
(§2) For compounds displaying inhibitory activity on BacA catalysis, their antibacterial activity was tested on different E. coli strains by monitoring bacterial growth in the presence of compounds (125, 250 and 500 µM). One colony was cultured in 10 ml of 2YT liquid medium and incubated at 37℃ for 6 h. The absorbance of the culture at 600 nm (A600) was measured to prepare a bacterial suspension in 2YT liquid medium at 15.10^6 CFU/ml (A600 = 1 corresponds to 3.10^8 CFU/ml). The bacterial suspension (200-µl) was then grown on 96-well plates in the presence or not of compounds (5-µl), which was added from a stock solution prepared in DMSO. Negative controls were then performed by growing the cells without inhibitors in 2YT medium and in 2YT medium supplemented with 2.5% of DMSO. The plates were incubated at 37℃ overnight with A600 measurements every 10 min using a Tecan F200 PRO microplate reader (iControl software).

[2] = tested on: BWΔtolC strain; assay: Growth inhibition in 2YT liquid medium (off-target activity); type: cell-based, E. coli
Description: as §1, §2

[3] = tested on: E. coli BW25113 wild type strain; assay: Growth inhibition in 2YT liquid medium; type: cell-based; details: 500 µM compound
Description: as §2
(§3) Two compounds, 3 and 5, were assessed for antibacterial activity using the broth microdilution method against the E. coli BW25113 wild type strain. […] Considering the plurality of C55-PP phosphatases in E. coli, the inhibition of BacA may not induce growth inhibition as long as the PAP2 enzymes (PgpB, YbjG, and LpxT) are functional. Consequently, compounds 3 and 5 were tested against a BW25113 variant in which the PAP2 enzymes were depleted (DMEG9 strain, alias BWbacA-single). […]

[4] = tested on: DMEG9 strain, alias BWbacA-single; assay: Growth inhibition in 2YT liquid medium; type: cell-based, E. coli; details: PAP2-depleted DMEG9; 500 µM compound
Description: as §2, §3

[5] = tested on: BWΔbacAΔtolC strain; assay: Growth inhibition in 2YT liquid medium; type: cell-based, E. coli; details: BacA and TolC depleted; 500 µM compound
Description: as §1
For compounds displaying inhibitory activity on BacA catalysis, their antibacterial activity was tested on different E. coli strains by monitoring bacterial growth in the presence of compounds (125, 250 and 500 µM). One colony was cultured in 10 ml of 2YT liquid medium and incubated at 37℃ for 6 h. The absorbance of the culture at 600 nm (A600) was measured to prepare a bacterial suspension in 2YT liquid medium at 15.10^6 CFU/ml (A600 = 1 corresponds to 3.10^8 CFU/ml). […] The plates were incubated at 37℃ overnight with A600 measurements every 10 min using a Tecan F200 PRO microplate reader (iControl software). […]

[6] = tested on: BWbacA-singleΔtolC strain carrying the empty vector (pTRCH30); assay: Growth inhibition, control strain carrying the empty vector; type: cell-based, E. coli; details: 500 µM compound
Description: as §2
(§4) To further assess the specificity of compounds 3 and 5 with respect to BacA, they were tested against the strain depleted of both TolC and PAP2 but overexpressing an ectopic copy of the bacA gene on a plasmid.

[7] = tested on: BWbacA-singleΔtolC strain overexpressing an ectopic copy of the bacA gene on a plasmid; assay: Growth inhibition upon bacA overexpression; type: cell-based, E. coli; details: bacA overexpressed in trans; 500 µM compound
Description: as §2, §4

[8] = target: T1, PgpB (Escherichia coli, UniProt P0A924); assay: C55-PP phosphatase assay of PgpB; type: biochemical, E. coli; details: 100 µM compound; data not shown
T1 construct: made in house
T1 sequence (P0A924 whole entry): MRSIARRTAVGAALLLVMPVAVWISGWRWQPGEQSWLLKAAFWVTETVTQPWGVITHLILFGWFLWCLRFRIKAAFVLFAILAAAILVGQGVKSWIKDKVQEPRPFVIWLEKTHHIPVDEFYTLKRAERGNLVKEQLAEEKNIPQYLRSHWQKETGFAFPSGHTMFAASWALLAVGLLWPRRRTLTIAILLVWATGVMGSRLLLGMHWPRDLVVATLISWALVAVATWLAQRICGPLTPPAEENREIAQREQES
Description: C43(DE3) cells carrying pTrcBac30 plasmid were used for the expression of N-terminally His6-tagged BacA (His6-BacA) protein from E. coli. Cells were grown in 2YT-ampicillin at 37 °C and when the OD600 reached 0.9, the temperature of the culture was decreased to 22 °C and protein expression was induced by addition of 1 mM IPTG. Incubation was continued overnight at 22 °C and bacteria were harvested in the cold and washed in a buffer containing 20 mM Tris-HCl, pH 7.4, 0.4 M NaCl, 10% glycerol and 10 mM β-mercaptoethanol (buffer A). The cells were disrupted by three successive passages through a French press and the suspension was centrifuged at 200,000× g, 4 °C for 45 min. The pellet of membranes was washed with buffer A. The membranes were resuspended in buffer A supplemented by 2% DDM detergent. […] Fractions containing the BacA protein were subjected to an additional gel-filtration purification step on Superdex 200 (HiLoadTM 16/600 SuperdexTM 200) equilibrated in 0.1% DDM-containing buffer A. 1-ml fractions were collected and analysed by SDS-PAGE. […]
The C55-PP phosphatase activity of BacA was assessed by measuring the percentage of transformation of [^14C]C55-PP into [^14C]C55-P upon incubation with BacA by TLC analysis. […] The radioactive spots were located and quantified with a radioactivity scanner. […] The C55-PP phosphatase activity of PgpB was measured as described for BacA.

In the case of O=C(O)c1csc(S(=O)(=O)Nc2ccc3sccc3c2)c1 [Compound 3], the MIC [1] is reported as 169 µg/mL, the MIC ([1]; 125, 250 and 500 µM tested) is reported as 500 µM and the “class of antibacterial activity (Figure S2)” value ([1]; BWΔtolC and BWbacA-singleΔtolC strains, 250 and 500 µM) is reported as “antibacterial activity on both strains”. For the same compound, the growth inhibition ([1]; TolC/PAP2-depleted BWbacA-singleΔtolC, 500 µM compound) was “complete growth inhibition; also recorded: total growth inhibition”, the “increase of the doubling time of cells” value ([2]; BWΔtolC, 500 µM compound) was 3 fold and the growth inhibition ([2]; TolC-depleted BWΔtolC, 500 µM compound) was “moderate inhibition; also recorded: significant growth inhibition”. The Off-target activity ([2]; antibacterial activity against BWΔtolC) was “Yes”, the growth inhibition [3] was “No growth inhibition” and the growth inhibition [4] was “no growth inhibition”. The “growth inhibition (BacA-independent activity)” value [5] was “moderate inhibition; also recorded: significant, although moderate, BacA-independent activity”, the growth inhibition [6] was “total growth inhibition” and the “growth inhibition upon bacA overexpression” value [7] was “partially alleviated growth inhibition; also recorded: susceptibility was decreased at the level observed with the strain depleted of TolC alone”. The “inhibition of PgpB” value [8] was “not inhibited”.

Reference: publication PMC9127117, “Towards discovery of inhibitors of the undecaprenyl-pyrophosphate phosphatase BacA by virtual high-throughput screening” (Computational and Structural Biotechnology Journal, 2022)
